This is an account of results in US6444871B1, “Tetracycline repressor regulated mammalian cell transcription and viral replication switch” (Brigham and Women's Hospital, priority 1997, dated 2002).

The subject of this experiment is tet operator-bearing hCMV major immediate-early enhancer-promoter. Kind of experiment: hEGF expression in porcine partial thickness wounds after particle-mediated gene transfer. The experiment is classed as in vivo, pig. Conditions: 500 mg tetracycline intravenous; day 2 to day 3 post-gene transfer. How it is done:
FIG. 5. In vivo regulation of the hCMV major immediate-early enhancer-promoter by the tet repressor. A total of 18 partial thickness wounds ([…]) were created on porcine dorsal skin. Nine wounds received 0.2 μg of pCMVtetOEGF and 0.8 μg of pcDNA3 vector DNA and the others received 0.2 μg of pCMVtetOEGF and 0.8 μg of pcDNA3-tetR by particle-mediated gene transfer. After particle bombardment, each transfected wound was enclosed in a sealed vinyl adhesive chamber containing 1.2 ml of isotonic saline in the presence of 100 units/ml penicillin and 100 μg/ml streptomycin. Wound fluid was collected from the chambers at 22, 46 and 70 hours after gene transfer and stored at −70° C. Following collection of wound fluid at each indicated time point, a new chamber was applied. Each pig was given 500 mg of tetracycline by intravenous injection at 46 hours after gene transfer. hEGF expression in wound fluid was determined by ELISA. The vertical line associated with each bar represents standard error. […]
Preparation of cartridges with coated DNA-gold beads for Accell (Agracetus/Geniva, Inc.) particle-mediated gene transfer and the utilization of the Accell helium gene gun were according to the protocol provided by Geniva, Inc. (8520 University Green, Middleton, Wis. 53562). […] Levels of EGF in wound fluid was determined by ELISA with anti-HEGF specific antibody. […]

`CN(C)[C@@H]1C(O)=C(C(N)=O)C(=O)[C@@]2(O)C(O)=C3C(=O)c4c(O)cccc4[C@@](C)(O)[C@H]3C[C@@H]12` [tetracycline]: the “increase of human EGF expression in wounds receiving pCMVtetOEGF and pcDNA3-tetR” value came to 4 fold.
